≈ marks a conversion by molar mass, not a printed value.
How the values were obtained:
[1] = tested on: Candida tropicalis; assay: Inhibition of Candida tropicalis ATCC 750 chitin synthase at 300 ug/ml using UDP-GlcNAc as substrate relative to control
[2] = tested on: Candida albicans; assay: Antifungal activity against Candida albicans ATCC 76615 assessed as growth inhibition measured after 24 hrs by two-fold broth dilution method; format: functional; settings: ATCC 76615, 24 h
[3] = tested on: Aspergillus fumigatus; assay: Antifungal activity against Aspergillus fumigatus GIMCC 3.19 assessed as growth inhibition measured after 24 hrs by two-fold broth dilution method; format: functional; settings: GIMCC 3.19, 24 h
[4] = tested on: Candida albicans; assay: Antifungal activity against Candida albicans ATCC 90023 assessed as growth inhibition measured after 24 hrs by two-fold broth dilution method; format: functional; settings: ATCC 90023, 24 h
[5] = tested on: Cryptococcus neoformans; assay: Antifungal activity against Cryptococcus neoformans ATCC 32719 assessed as growth inhibition measured after 24 hrs by two-fold broth dilution method; format: functional; settings: ATCC 32719, 24 h
[6] = tested on: Aspergillus flavus; assay: Antifungal activity against Aspergillus flavus ATCC 16870 assessed as growth inhibition measured after 24 hrs by two-fold broth dilution method; format: functional; settings: ATCC 16870, 24 h
[7] = tested on: Staphylococcus aureus; assay: Antibacterial activity against methicillin-resistant Staphylococcus aureus N315 assessed as growth inhibition measured after 24 hrs by two-fold broth dilution method; format: functional; settings: N315, 24 h
[8] = tested on: Staphylococcus aureus; assay: Antibacterial activity against Staphylococcus aureus ATCC 25923 assessed as growth inhibition measured after 24 hrs by two-fold broth dilution method; format: functional; settings: ATCC 25923, 24 h
[9] = tested on: Bacillus spizizenii; assay: Antibacterial activity against Bacillus subtilis ATCC 6633 assessed as growth inhibition measured after 24 hrs by two-fold broth dilution method; format: functional; settings: ATCC 6633, 24 h
[10] = tested on: Escherichia coli; assay: Antibacterial activity against Escherichia coli JM 109 assessed as growth inhibition measured after 24 hrs by two-fold broth dilution method; format: functional; settings: JM 109, 24 h
[11] = tested on: Pseudomonas aeruginosa; assay: Antibacterial activity against Pseudomonas aeruginosa ATCC 9027 assessed as growth inhibition measured after 24 hrs by two-fold broth dilution method; format: functional; settings: ATCC 9027, 24 h
[12] = Inhibition of Candida tropicalis ATCC 750 chitin synthase using UDP-GlcNAc as substrate
[13] = tested on: Candida albicans; assay: Antifungal activity against Candida albicans ATCC 76615 assessed as fractional inhibitory concentration index after 24 hrs in presence of fluconazole by two-dimensional broth microdilution checkboard assay; format: functional
[14] = tested on: Aspergillus fumigatus; assay: Antifungal activity against Aspergillus fumigatus GIMCC 3.19 assessed as fractional inhibitory concentration index after 24 hrs in presence of fluconazole by two-dimensional broth microdilution checkboard assay; format: functional
[15] = tested on: Cryptococcus neoformans; assay: Antifungal activity against Cryptococcus neoformans ATCC 32719 assessed as fractional inhibitory concentration index after 24 hrs in presence of fluconazole by two-dimensional broth microdilution checkboard assay; format: functional
[16] = tested on: Aspergillus flavus; assay: Antifungal activity against Aspergillus flavus ATCC 16870 assessed as fractional inhibitory concentration index after 24 hrs in presence of fluconazole by two-dimensional broth microdilution checkboard assay; format: functional
[17] = tested on: Candida albicans; assay: Antifungal activity against Candida albicans ATCC 76615 after 24 hrs in presence of fluconazole by two-dimensional broth microdilution checkboard assay; format: functional; settings: ATCC 76615, 24 h
[18] = tested on: Aspergillus fumigatus; assay: Antifungal activity against Aspergillus fumigatus GIMCC 3.19 after 24 hrs in presence of fluconazole by two-dimensional broth microdilution checkboard assay; format: functional; settings: GIMCC 3.19, 24 h
[19] = tested on: Cryptococcus neoformans; assay: Antifungal activity against Cryptococcus neoformans ATCC 32719 after 24 hrs in presence of fluconazole by two-dimensional broth microdilution checkboard assay; format: functional; settings: ATCC 32719, 24 h
[20] = tested on: Aspergillus flavus; assay: Antifungal activity against Aspergillus flavus ATCC 16870 after 24 hrs in presence of fluconazole by two-dimensional broth microdilution checkboard assay; format: functional; settings: ATCC 16870, 24 h
[21] = tested on: Proteus vulgaris; assay: Antibacterial activity against Bacillus proteus ATCC 8427 assessed as growth inhibition measured after 24 hrs by two-fold broth dilution method; format: functional; settings: ATCC 8427, 24 h
[22] = tested on: Candida albicans; assay: Antifungal activity against Candida albicans ATCC 76615 assessed as fluconazole MIC after 24 hrs in presence of fluconazole by two-dimensional broth microdilution checkboard assay; format: functional; settings: ATCC 76615, 24 h
[23] = tested on: Aspergillus fumigatus; assay: Antifungal activity against Aspergillus fumigatus GIMCC 3.19 assessed as fluconazole MIC after 24 hrs in presence of fluconazole by two-dimensional broth microdilution checkboard assay; format: functional; settings: GIMCC 3.19, 24 h
[24] = tested on: Cryptococcus neoformans; assay: Antifungal activity against Cryptococcus neoformans ATCC 32719 assessed as fluconazole MIC after 24 hrs in presence of fluconazole by two-dimensional broth microdilution checkboard assay; format: functional; settings: ATCC 32719, 24 h
[25] = tested on: Aspergillus flavus; assay: Antifungal activity against Aspergillus flavus ATCC 16870 assessed as fluconazole MIC after 24 hrs in presence of fluconazole by two-dimensional broth microdilution checkboard assay; format: functional; settings: ATCC 16870, 24 h

## O=C(Nc1ccc(Cl)cc1)[C@H](O)[C@@H](O)C(=O)N1CCC2(CCNC2=O)CC1
[1]
  inhibition: 66.5%
[2]
  MIC: 162 µM (≈ 64.1 µg/mL)
[3]
  MIC: 323 µM (≈ 128 µg/mL)
[4]
  MIC: 320 µM (≈ 127 µg/mL)
[5]
  MIC: 162 µM (≈ 64.1 µg/mL)
[6]
  MIC: 323 µM (≈ 128 µg/mL)
[7]
  MIC: 650 µM (≈ 257 µg/mL)
[8]
  MIC: 320 µM (≈ 127 µg/mL)
[9]
  MIC: 1290 µM (≈ 511 µg/mL)
[10]
  MIC: 320 µM (≈ 127 µg/mL)
[11]
  MIC: 1290 µM (≈ 511 µg/mL)
[12]
  IC50: 270 µM
[13]
  fractional inhibitory concentration index (FICI): 0.3
[14]
  fractional inhibitory concentration index (FICI): 0.8
[15]
  fractional inhibitory concentration index (FICI): 2
[16]
  fractional inhibitory concentration index (FICI): 1
[17]
  MIC: 10 µM
[18]
  MIC: 81 µM
[19]
  MIC: 162 µM
[20]
  MIC: 162 µM
[21]
  MIC: 650 µM (≈ 257 µg/mL)
[22]
  MIC: 13 µM
[23]
  MIC: 52 µM
[24]
  MIC: 52 µM
[25]
  MIC: 104 µM

## COc1ccc(NC(=O)[C@H](O)[C@@H](O)C(=O)N2CCC3(CCNC3=O)CC2)cc1
[1]
  inhibition: 78.3%
[2]
  MIC: 164 µM (≈ 64.2 µg/mL)
[3]
  MIC: 82 µM (≈ 32.1 µg/mL)
[4]
  MIC: 330 µM (≈ 129 µg/mL)
[5]
  MIC: 327 µM (≈ 128 µg/mL)
[6]
  MIC: 164 µM (≈ 64.2 µg/mL)
[7]
  MIC: 650 µM (≈ 254 µg/mL)
[8]
  MIC: 330 µM (≈ 129 µg/mL)
[9]
  MIC: 1310 µM (≈ 513 µg/mL)
[10]
  MIC: 330 µM (≈ 129 µg/mL)
[11]
  MIC: 1310 µM (≈ 513 µg/mL)
[12]
  IC50: 120 µM
[13]
  fractional inhibitory concentration index (FICI): 2
[14]
  fractional inhibitory concentration index (FICI): 1
[15]
  fractional inhibitory concentration index (FICI): 1.5
[16]
  fractional inhibitory concentration index (FICI): 0.8
[17]
  MIC: 164 µM
[18]
  MIC: 41 µM
[19]
  MIC: 327 µM
[20]
  MIC: 82 µM
[21]
  MIC: 330 µM (≈ 129 µg/mL)
[22]
  MIC: 52 µM
[23]
  MIC: 52 µM
[24]
  MIC: 26 µM
[25]
  MIC: 52 µM

## O=C(Nc1cc(C(F)(F)F)cc(C(F)(F)F)c1)[C@H](O)[C@@H](O)C(=O)N1CCC2(CCNC2=O)CC1
[1]
  inhibition: 2.3%
[2]
  MIC: 32 µM (≈ 15.9 µg/mL)
[3]
  MIC: 515 µM (≈ 256 µg/mL)
[4]
  MIC: 260 µM (≈ 129 µg/mL)
[5]
  MIC: 64 µM (≈ 31.8 µg/mL)
[6]
  MIC: 515 µM (≈ 256 µg/mL)
[7]
  MIC: 260 µM (≈ 129 µg/mL)
[8]
  MIC: 1030 µM (≈ 512 µg/mL)
[9]
  MIC: 510 µM (≈ 254 µg/mL)
[10]
  MIC: 60 µM (≈ 29.8 µg/mL)
[11]
  MIC: 510 µM (≈ 254 µg/mL)
[13]
  fractional inhibitory concentration index (FICI): 1
[14]
  fractional inhibitory concentration index (FICI): 0.8
[15]
  fractional inhibitory concentration index (FICI): 3
[16]
  fractional inhibitory concentration index (FICI): 0.5
[17]
  MIC: 16 µM
[18]
  MIC: 129 µM
[19]
  MIC: 129 µM
[20]
  MIC: 129 µM
[21]
  MIC: 1030 µM (≈ 512 µg/mL)
[22]
  MIC: 26 µM
[23]
  MIC: 52 µM
[24]
  MIC: 52 µM
[25]
  MIC: 52 µM
